Earlier results as cited in patent publication US20210113561A1, “PHARMACEUTICAL COMPOSITION, METHODS FOR TREATING AND USES THEREOF” (Boehringer Ingelheim International GmbH, priority 2018, published 2021).

Columns and labels:
[1] = patients with type 2 diabetes mellitus at high risk for cardiovascular events
SGLT2 = biological target: T1, SGLT2 (Homo sapiens, UniProt P31639)
T1 sequence (P31639 1-672): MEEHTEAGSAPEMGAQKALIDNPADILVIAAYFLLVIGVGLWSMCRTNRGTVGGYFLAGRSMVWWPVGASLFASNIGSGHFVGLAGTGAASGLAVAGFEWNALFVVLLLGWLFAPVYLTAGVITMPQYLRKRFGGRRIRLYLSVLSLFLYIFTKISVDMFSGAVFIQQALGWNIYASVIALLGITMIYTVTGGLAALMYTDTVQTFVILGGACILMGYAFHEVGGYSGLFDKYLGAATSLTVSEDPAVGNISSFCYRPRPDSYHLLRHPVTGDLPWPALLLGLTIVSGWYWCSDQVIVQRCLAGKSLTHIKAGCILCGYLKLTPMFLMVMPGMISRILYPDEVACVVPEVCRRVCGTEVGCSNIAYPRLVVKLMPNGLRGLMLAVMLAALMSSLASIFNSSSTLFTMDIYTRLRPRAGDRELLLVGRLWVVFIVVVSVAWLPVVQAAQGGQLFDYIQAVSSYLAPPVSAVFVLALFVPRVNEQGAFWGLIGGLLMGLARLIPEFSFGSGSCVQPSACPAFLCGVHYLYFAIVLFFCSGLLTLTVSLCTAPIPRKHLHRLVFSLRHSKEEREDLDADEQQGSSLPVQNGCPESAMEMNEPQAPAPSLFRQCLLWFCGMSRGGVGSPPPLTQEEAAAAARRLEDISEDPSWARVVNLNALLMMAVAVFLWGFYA

[2] = metformin on its own, in the diabetic

Row | Compound | rates of death from any cause [1] | rates of the primary composite cardiovascular outcome [1] | selectivity SGLT2 versus SGLT1 (SGLT2) | average improvement in the HbA1c value [2]
1 | OC[C@H]1O[C@@H](c2ccc(Cl)c(Cc3ccc(O[C@H]4CCOC4)cc3)c2)[C@H](O)[C@@H](O)[C@@H]1O [empagliflozin] | significantly lower rates | significantly lower rates | high selectivity | 
2 | CN(C)C(=N)N=C(N)N [metformin] |  |  |  | 1.0-1.5%
